Source: PMC8892251, “An Enhanced Hybrid Screening Approach to Identify Potent Inhibitors for the SARS-CoV-2 Main Protease From the NCI Compound Library” (Frontiers in Chemistry, 2022)
Values joined by “and” are separate entries in the source; they are usually repeats but may differ in a detail not shown here. Equal entries are not always repeated. Where two headings read alike, the source gives them in different places.

Experiments:
SARS-CoV-2 Mpro = SARS-CoV-2 Mpro (Severe acute respiratory syndrome coronavirus 2, UniProt P0DTD1); assay: biochemical
PLpro = PLpro (Severe acute respiratory syndrome coronavirus 2, UniProt P0DTD1); assay: IC50 test against PLpro (selectivity check for quinones); format: biochemical, SARS-CoV-2; settings: Supplementary Figure S4; for specificity of Mpro inhibition: conclusion from PLpro counter-test; for selectivity Mpro versus PLpro: quinones tested on PLpro

Q: What does the source list for CC1=C(N=[N+]=[N-])C(=O)C(C)=C(N=[N+]=[N-])C1=O [Compound 88]?
A: IC50 (SARS-CoV-2 Mpro; IC50): 723 nM; specificity of Mpro inhibition (PLpro): specifically inhibit the activity of Mpro; selectivity Mpro versus PLpro (PLpro): more selective on Mpro than PLpro

Q: For O=C1C=CC(=O)c2c1ncc1c2nc2sccn21 [Compound 110], which IC50 (SARS-CoV-2 Mpro; Mpro, Figure 5, triplicate experiments, read-out: IC50) is on record?
A: 705 nM

Q: What about the IC50 (SARS-CoV-2 Mpro; Mpro, read-out: IC50) of the same compound?
A: 705 nM

Q: And the “specificity of Mpro inhibition” value (PLpro)?
A: specifically inhibit the activity of Mpro

Q: And the “selectivity Mpro versus PLpro” value (PLpro)?
A: more selective on Mpro than PLpro

Q: Which results are given for O=C1C=C/C(=N\c2nc3c4ccccc4c4ccccc4c3[nH]2)c2ccccc21 [Compound 112]?
A: IC50 (SARS-CoV-2 Mpro; IC50): 1690 nM and 1700 nM; selectivity Mpro versus PLpro (PLpro): more selective on Mpro than PLpro
